Laboratory results taken from the supplement of paper PMC9262897, “Low-cost anti-mycobacterial drug discovery using engineered E. coli” (Nature Communications, 2022).

Tested on: E. coli TESEC Mtb Alr
Assay: growth (OD600 after 10 h, mean); higher = more growth
Protocol: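 TESEC Mtb Alr E. coli grown in a two-dimensional dilution series of drug (µM) and arabinose (12 to 1e8 nM). Growth is read as OD600 after 10 h; values are means of 3 biological replicates.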
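Also: E. coli lacking its native Alr, complemented by codon-optimized Mtb Alr under a feedback-controlled arabinose-inducible plasmid circuit, grown in defined medium.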

CCOC(=O)[C@H](CCc1ccccc1)N[C@H]1CCc2ccccc2N(CC(=O)O)C1=O [Benazepril]
growth
Details | drug 31.25 µM | drug 62.5 µM | drug 125 µM | drug 250 µM
arabinose 12 nM | – | 0.321 | 0.279 | –
arabinose 24 nM | – | 0.326 | 0.285 | –
arabinose 48 nM | – | 0.33 | 0.275 | –
arabinose 95 nM | – | 0.309 | 0.279 | –
arabinose 191 nM | – | 0.308 | 0.275 | –
arabinose 381 nM | 0.325 | 0.309 | 0.274 | –
arabinose 763 nM | 0.322 | 0.304 | 0.278 | –
arabinose 1526 nM | 0.322 | 0.305 | 0.275 | 0.185
arabinose 3052 nM | 0.326 | 0.308 | 0.279 | 0.183
arabinose 6104 nM | 0.334 | 0.303 | 0.277 | 0.187
arabinose 12207 nM | 0.332 | 0.312 | 0.288 | 0.186
arabinose 24414 nM | 0.348 | 0.309 | 0.297 | –
arabinose 48828 nM | 0.393 | 0.396 | 0.359 | –
arabinose 97656 nM | 0.462 | 0.394 | 0.376 | –
arabinose 195312 nM | 0.42 | 0.387 | 0.327 | –
arabinose 390625 nM | 0.35 | 0.346 | 0.289 | –
arabinose 781250 nM | 0.307 | 0.306 | 0.281 | –
arabinose 1562500 nM | 0.287 | 0.286 | 0.269 | –
arabinose 3125000 nM | 0.267 | 0.268 | 0.255 | –
arabinose 6250000 nM | 0.273 | 0.273 | 0.256 | –
arabinose 12500000 nM | 0.266 | 0.256 | 0.256 | –
arabinose 25000000 nM | 0.258 | 0.252 | 0.244 | –
arabinose 50000000 nM | 0.245 | 0.244 | 0.243 | –
arabinose 100000000 nM | 0.231 | 0.23 | 0.227 | –
